A value given as a limit tells only on which side of the number the result lay.

34 compounds from patent publication US10851115B2, “Heterocyclic compounds as RSV inhibitors” (Enanta Pharmaceuticals, Inc., priority 2017, dated 2020) can be followed below.

One test deals with Human RSV-A (“Long” strain). Put plainly: RSV in vitro cytoprotection assay in HEp-2 cells (ATPlite readout). Particulars: human respiratory syncytial virus, 96 h; HEp-2 cells, 4-day incubation, ATPlite; read-out: Human RSV-A (“Long” strain) EC50. The class given is cell-based. The essentials:
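HEp-2 cells (8,000/well) given 2-fold compound dilutions in duplicate, then infected with RSV-A Long stock; 4-day incubation. Cell viability read by ATPlite luminescence (ATP), with parallel uninfected plate for cytotoxicity; EC50 from protection against CPE.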
In the case of `Cc1cnc(N2CC3(CCOCC3)C2)c(C(=O)Nc2ccc(C(=O)N3CCc4cc(C(=O)Nc5c(F)cc(F)cc5F)sc4-c4cc(C)sc43)cc2)c1` [Example 129], the EC50 is greater than 50 nM.
For `Cc1cnc(N2CC3(CCOCC3)C2)c(C(=O)Nc2ccc(C(=O)N3CCc4cc(C(=O)Nc5c(Cl)cccc5Cl)sc4-c4cc(C)sc43)cc2)c1` [Example 130], the concentration for a half-maximal effect (EC50) is greater than 50 nM.
Consider `Cc1cnc(N2CC3(CCOCC3)C2)c(C(=O)Nc2ccc(C(=O)N3CCc4cc(-c5nc6cccc(F)c6[nH]5)sc4-c4cc(C)sc43)cc2)c1` [Example 131], for which the EC50 fell in the range of 10 to 50 nM.
The same measure, in the same setting: with `Cc1cnc(N2CC3(CCOCC3)C2)c(C(=O)Nc2ccc(C(=O)N3CCc4cc(-c5nc6ccccc6[nH]5)sc4-c4cc(C)sc43)cc2)c1` [Example 132] the figure was 10 to 50 nM; with `Cc1cnc(N2CC3(CCOCC3)C2)c(C(=O)Nc2ccc(C(=O)N3CCc4cc(C(=O)Nc5c(F)cccc5F)sc4-c4ncc(C)cc43)cc2)c1` [Example 133], less than 10 nM.
In the case of `Cc1cnc(N2CC3(CCOCC3)C2)c(C(=O)Nc2ccc(C(=O)N3CCc4cc(C(=O)Nc5c(C)cccc5F)sc4-c4ncc(C)cc43)cc2)c1` [Example 134], the EC50 was less than 10 nM.
Regarding `Cc1cnc(N2CC3(CCOCC3)C2)c(C(=O)Nc2ccc(C(=O)N3CCc4cc(C(=O)Nc5c(F)cccc5Cl)sc4-c4ncc(C)cc43)cc2)c1` [Example 136], the half-maximal effective concentration (EC50) is less than 10 nM.
Consider `Cc1cnc(N2CC3(CCOCC3)C2)c(C(=O)Nc2ccc(C(=O)N3CCc4cc(-c5nc6ccccc6[nH]5)sc4-c4ncc(C)cc43)cc2)c1` [Example 137], for which the EC50 was less than 10 nM.
`Cc1cnc(N2CC3(CCOCC3)C2)c(C(=O)Nc2ccc(C(=O)N3CCc4cc(C(=O)Nc5c(F)cccc5F)sc4-c4nc(C)ccc43)cc2)c1` [Example 138]: the concentration giving a half-maximal response (EC50) lay in the range of 10 to 50 nM.
For `Cc1cnc(N2CC3(CCOCC3)C2)c(C(=O)Nc2ccc(C(=O)N3CCc4cc(C(=O)Nc5c(C)cccc5F)sc4-c4nc(C)ccc43)cc2)c1` [Example 139], the half-maximal effective concentration (EC50) was 10 to 50 nM.
On to `Cc1cnc(N2CC3(CCOCC3)C2)c(C(=O)Nc2ccc(C(=O)N3CCc4cc(C(=O)Nc5ncccc5F)sc4-c4nc(C)ccc43)cc2)c1` [Example 140], for which the concentration giving a half-maximal response (EC50) lay within 10 to 50 nM.
In the case of `Cc1cnc(N2CC3(CCOCC3)C2)c(C(=O)Nc2ccc(C(=O)N3CCc4cc(C(=O)Nc5c(C)cccc5C#N)sc4-c4nc(C)ccc43)cc2)c1` [Example 141], the EC50 was greater than 50 nM.
For the compound `Cc1cnc(N2CC3(CCOCC3)C2)c(C(=O)Nc2ccc(C(=O)N3CCc4cc(C(=O)Nc5c(F)cccc5Cl)sc4-c4nc(C)ccc43)cc2)c1` [Example 142], the EC50 lay within 10 to 50 nM.
For `Cc1cnc(N2CC3(CCOCC3)C2)c(C(=O)Nc2ccc(C(=O)N3CCc4cc(C(=O)Nc5c(F)cccc5C(F)(F)F)sc4-c4nc(C)ccc43)cc2)c1` [Example 143], the EC50 was greater than 50 nM.
`Cc1ccc2c(n1)-c1sc(C(=O)Nc3c(F)cccc3F)cc1CCN2C(=O)c1ccc(NC(=O)c2ccc(C)nc2N2CC3(CCOCC3)C2)cc1` [Example 144]: the EC50 was 10 to 50 nM.
On to `Cc1ccc2c(n1)-c1sc(C(=O)Nc3c(C)cccc3F)cc1CCN2C(=O)c1ccc(NC(=O)c2ccc(C)nc2N2CC3(CCOCC3)C2)cc1` [Example 145], for which the EC50 was greater than 50 nM.
In the case of `Cc1ccc2c(n1)-c1sc(C(=O)Nc3ncccc3F)cc1CCN2C(=O)c1ccc(NC(=O)c2ccc(C)nc2N2CC3(CCOCC3)C2)cc1` [Example 146], the 50% effective concentration (EC50) was in the range of 10 to 50 nM.
Take `Cc1ccc2c(n1)-c1sc(C(=O)Nc3c(C)cccc3C#N)cc1CCN2C(=O)c1ccc(NC(=O)c2ccc(C)nc2N2CC3(CCOCC3)C2)cc1` [Example 147]: the EC50 is greater than 50 nM.
With `Cc1ccc2c(n1)-c1sc(C(=O)Nc3c(F)cccc3Cl)cc1CCN2C(=O)c1ccc(NC(=O)c2ccc(C)nc2N2CC3(CCOCC3)C2)cc1` [Example 148], the 50% effective concentration (EC50) is greater than 50 nM.
With `Cc1ccc2c(n1)-c1sc(C(=O)Nc3c(F)cccc3C(F)(F)F)cc1CCN2C(=O)c1ccc(NC(=O)c2ccc(C)nc2N2CC3(CCOCC3)C2)cc1` [Example 149], the EC50 is greater than 50 nM.
Regarding `Cc1cnc(N2CC3(CCOCC3)C2)c(C(=O)Nc2ccc(C(=O)N3CCc4cc(NC(=O)c5c(F)cccc5F)sc4-c4ncccc43)cc2)c1` [Example 151], the EC50 is less than 10 nM.
For `Cc1cnc(N2CC3(CCOCC3)C2)c(C(=O)Nc2ccc(C(=O)N3CCc4cc(NC(=O)c5c(C)cccc5F)sc4-c4ncccc43)cc2)c1` [Example 152], the EC50 was less than 10 nM.
On to `Cc1cnc(N2CC3(CCOCC3)C2)c(C(=O)Nc2ccc(C(=O)N3CCc4cc(NC(=O)c5c(F)cccc5Cl)sc4-c4ncccc43)cc2)c1` [Example 153], for which the EC50 was less than 10 nM.
In the case of `Cc1cnc(N2CC3(CCOCC3)C2)c(C(=O)Nc2ccc(C(=O)N3CCc4cc(NC(=O)c5ncccc5F)sc4-c4ncccc43)cc2)c1` [Example 154], the half-maximal effective concentration (EC50) is less than 10 nM.
As for `Cc1cnc(N2CC3(CCOCC3)C2)c(C(=O)Nc2ccc(C(=O)N3CCc4cc(NC(=O)c5ccccc5)sc4-c4ncccc43)cc2)c1` [Example 155], the half-maximal effective concentration (EC50) was less than 10 nM.
Still for that read-out and setting: to `Cc1cnc(N2CC3(CCOCC3)C2)c(C(=O)Nc2ccc(C(=O)N3CCc4cc(NC(=O)c5ccccc5F)sc4-c4ncccc43)cc2)c1` [Example 156] belongs less than 10 nM.
For the compound `Cc1ccc(C(=O)Nc2ccc(C(=O)N3CCc4cc(NC(=O)c5c(F)cccc5F)sc4-c4ncccc43)cc2)c(N2CC3(CCOCC3)C2)n1` [Example 157], the concentration giving a half-maximal response (EC50) is less than 10 nM.
For `Cc1ccc(C(=O)Nc2ccc(C(=O)N3CCc4cc(NC(=O)c5c(C)cccc5F)sc4-c4ncccc43)cc2)c(N2CC3(CCOCC3)C2)n1` [Example 158], the EC50 lay within 10 to 50 nM.
Turning to `Cc1ccc(C(=O)Nc2ccc(C(=O)N3CCc4cc(NC(=O)c5c(F)cccc5Cl)sc4-c4ncccc43)cc2)c(N2CC3(CCOCC3)C2)n1` [Example 159], the concentration for a half-maximal effect (EC50) fell in the range of 10 to 50 nM.
`Cc1ccc(C(=O)Nc2ccc(C(=O)N3CCc4cc(NC(=O)c5ccccc5F)sc4-c4ncccc43)cc2)c(N2CC3(CCOCC3)C2)n1` [Example 160]: the EC50 was less than 10 nM.
Consider `Cc1cnc2c(c1)N(C(=O)c1ccc(NC(=O)c3cccnc3N3CC4(CCOCC4)C3)cc1)CCc1cc(C(=O)Nc3c(C)cccc3F)sc1-2` [Example 161], for which the concentration for a half-maximal effect (EC50) was less than 10 nM.
Same read-out and setting: to `Cc1cnc2c(c1)N(C(=O)c1ccc(NC(=O)c3cccnc3N3CC4(CCOCC4)C3)cc1)CCc1cc(C(=O)Nc3c(F)cccc3Cl)sc1-2` [Example 162] belongs less than 10 nM; to `Cc1cnc2c(c1)N(C(=O)c1ccc(NC(=O)c3cccnc3N3CC4(CCOCC4)C3)cc1)CCc1cc(C(=O)Nc3c(F)cccc3F)sc1-2` [Example 164], less than 10 nM.

Staying with this test, now noted: human respiratory syncytial virus, HEp-2.
In turn, `O=C(Nc1ccccc1F)N[C@H]1N=C(c2ccccc2)c2ccccc2NC1=O` [RSV-604, reference compound] had an EC50 of roughly 2400 nM.
